# In publication PMC4879574, “Identification of Leishmania donovani Topoisomerase 1 inhibitors via intuitive scaffold hopping and bioisosteric modification of known Top 1 inhibitors” (Scientific Reports, 2016):
# Read-outs that look alike come from different tables or passages of the source.
# How the values were obtained:
# Human Top1 (HTop1) = biological target: T1, Human Top1 (HTop1) (Homo sapiens, UniProt P11387); experiment: Plasmid DNA relaxation assay, HTop1; type: biochemical; conditions: averages of three experiments, read-out: HTop1 inhibition (EC50)
# T1 construct: made in house; host or cells: Sf-9 insect cells infected with recombinant baculovirus (gift from Prof. J. J. Champoux)
# T1 sequence (P11387 1-765): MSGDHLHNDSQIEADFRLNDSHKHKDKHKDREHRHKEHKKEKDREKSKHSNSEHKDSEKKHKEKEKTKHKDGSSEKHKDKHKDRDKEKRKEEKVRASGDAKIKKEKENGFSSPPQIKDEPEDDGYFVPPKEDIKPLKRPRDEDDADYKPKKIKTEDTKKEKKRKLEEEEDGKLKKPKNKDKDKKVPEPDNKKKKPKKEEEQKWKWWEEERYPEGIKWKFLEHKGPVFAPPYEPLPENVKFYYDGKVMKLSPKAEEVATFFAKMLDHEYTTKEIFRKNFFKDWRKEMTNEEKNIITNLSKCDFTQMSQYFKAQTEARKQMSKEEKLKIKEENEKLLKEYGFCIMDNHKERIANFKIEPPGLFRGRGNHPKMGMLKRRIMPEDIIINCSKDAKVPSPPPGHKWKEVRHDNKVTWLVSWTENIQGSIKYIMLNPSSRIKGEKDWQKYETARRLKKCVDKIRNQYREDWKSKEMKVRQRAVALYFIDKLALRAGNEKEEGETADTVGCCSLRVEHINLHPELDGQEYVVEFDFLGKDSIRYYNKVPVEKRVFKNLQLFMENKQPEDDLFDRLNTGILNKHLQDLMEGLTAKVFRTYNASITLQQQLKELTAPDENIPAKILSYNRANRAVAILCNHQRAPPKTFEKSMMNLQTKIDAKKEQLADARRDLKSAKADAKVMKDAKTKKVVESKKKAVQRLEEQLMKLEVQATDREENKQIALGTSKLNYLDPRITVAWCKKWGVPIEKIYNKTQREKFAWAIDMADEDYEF
# Experimental: (§1) To investigate the inhibitory effect of our library compounds on the DNA relaxation activity of the recombinant Human and Leishmania topoisomerase 1 (Table 2), assays were performed involving supercoiled plasmid DNA, the enzymes (HTop1 and LdTop1) and our molecules. The enzymes were purified by the standard literature procedure.
# (§2) The type I DNA topoisomerase are assayed by decreased mobility of the relaxed isomers of supercoiled pBS (SK^+) [pBlue-script (SK^+)] DNA in agarose gel. The relaxation assay was carried out as described previously with LdTop1B and HTop I, diluted in the relaxation buffer (25 mM Tris–HCl, pH 7.5, 5% glycerol, 0.5 mM DTT, 10 mM MgCl2, 50 mM KCl, […] and […] BSA) and supercoiled plasmid pBS (SK^+) DNA (85–95% were negatively supercoiled, with remainder being nicked circles)[9][28][29]. The reconstituted enzyme LdTop1B was assayed at 50 mM KCl concentration as described before. For all kinetic studies, the reaction mixtures containing the buffer and DNA were heated to 37 °C before addition of the enzymes. The reactions were rapidly quenched using stop solution and kept on ice. The gels were stained with ethidium bromide (EtBr) ([…]) and the amount of supercoiled monomer DNA band fluorescence were quantified by integration using Gel Doc 2000 under UV illumination (Bio-Rad Quantity One Software), as described previously.
# The wild-type HTop1 (91 kDa) was purified from Sf-9 insect cells infected with the recombinant baculovirus (a kind gift from Prof. J. J. Champoux). Approximately, 1 * 10^9 Sf-9 cells were infected with the recombinant virus, and cells were harvested after 48-h of infection. The cells were lysed and enzyme was purified as described. Briefly, at 48 h post-infection, approximately 3 * 10^9 Sf-9 cells were harvested by centrifugation for 5 min at 400 * g. The cells were resuspended in 1 liter of ice-cold phosphate-buffered saline and centrifuged for 5 min at 400 * g. The nuclei were washed twice in 80 ml of lysis buffer minus Triton X-100 and resuspended in 40 ml of resuspension buffer (50 mM KCl, 10 mM Tris-Cl, pH 7.5, 2 mM MgCl2, 25 mM DTT, 0.4 mg/ml phenylmethylsulfonyl fluoride, 0.12 mg/ml aprotinin). The nuclear extract was stirred for 5 min at ~200 rpm. With continued stirring, 50 ml of polyethylene glycol (PEG) buffer (18% PEG 8000, 1 M NaCl, 10% glycerol) was added dropwise in order to precipitate the DNA. The PEG precipitate was pelleted by centrifugation and the resulting PEG supernatant was dialyzed against 4 liters of potassium phosphate buffer. The dialyzed PEG supernatant passed over a 10-ml bed volume of phosphocellulose (Whatman P11) equilibrated with PPB. The HTop1 flowed through the PS column and then passed over a Mono Q column followed by loaded onto a Mono S column. The Mono S column was eluted with a 25-ml 50–200 mM KPO4, pH 7.4, gradient. […] The peak Mono S fractions were pooled, concentrated with an Amicon ultrafiltration cell, dialyzed into storage buffer (50% glycerol, 10 mM Tris-hydrochloride, pH 7.5, 1 mM DTT, 1 mM EDTA), and stored at −20 °C.
# [1] = biological target: Leishmania donovani Topoisomerase 1 (LdTop1) (Leishmania donovani, UniProt A0A3Q8IHS4+Q8WQM6); experiment: Plasmid DNA relaxation assay, LdTop1 (simultaneous incubation); type: biochemical
# Leishmania donovani Topoisomerase 1 (LdTop1), sequence (Q8WQM6 entry or part of it): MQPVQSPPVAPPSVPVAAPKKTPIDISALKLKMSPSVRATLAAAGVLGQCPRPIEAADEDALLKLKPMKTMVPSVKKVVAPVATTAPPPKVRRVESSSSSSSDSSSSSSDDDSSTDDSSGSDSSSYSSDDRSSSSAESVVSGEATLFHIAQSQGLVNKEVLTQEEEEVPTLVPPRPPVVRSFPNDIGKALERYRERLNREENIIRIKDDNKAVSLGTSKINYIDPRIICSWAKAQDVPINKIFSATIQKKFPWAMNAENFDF
# Leishmania donovani Topoisomerase 1 (LdTop1), sequence (A0A3Q8IHS4 entry or part of it): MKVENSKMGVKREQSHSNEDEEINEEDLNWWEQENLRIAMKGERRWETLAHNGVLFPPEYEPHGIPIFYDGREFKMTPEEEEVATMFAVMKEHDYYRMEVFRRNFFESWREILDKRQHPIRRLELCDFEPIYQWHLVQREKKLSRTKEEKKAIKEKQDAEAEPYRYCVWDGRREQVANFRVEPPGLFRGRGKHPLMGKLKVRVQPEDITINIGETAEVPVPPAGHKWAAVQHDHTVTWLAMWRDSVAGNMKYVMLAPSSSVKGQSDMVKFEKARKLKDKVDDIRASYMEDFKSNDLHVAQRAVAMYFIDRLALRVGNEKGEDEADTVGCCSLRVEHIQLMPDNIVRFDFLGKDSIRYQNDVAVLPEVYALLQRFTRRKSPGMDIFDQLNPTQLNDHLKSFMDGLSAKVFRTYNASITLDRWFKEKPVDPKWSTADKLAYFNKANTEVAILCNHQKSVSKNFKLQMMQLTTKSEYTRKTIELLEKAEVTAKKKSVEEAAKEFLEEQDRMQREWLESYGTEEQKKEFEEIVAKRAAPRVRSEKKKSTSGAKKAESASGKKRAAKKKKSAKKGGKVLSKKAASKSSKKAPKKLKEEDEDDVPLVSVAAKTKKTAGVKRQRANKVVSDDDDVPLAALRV
# Experimental: as §1
# All the experiments were conducted thrice and representative data from once set of them are expressed as mean ± SD.
# as §2
# Cells harvested from 1 litre of culture were separately lysed by lysozyme/sonication, and the proteins were purified through Ni-NTA (Ni^2+-nitriloacetate-agarose column (Qiagen, Hilden, Germany) followed by a phospho-cellulose column (P11 cellulose; Whatman, Maidstone Kent, UK) as described previously. Finally, the purified proteins LdTOP1L and LdTOP1S were stored at −70 °C. The concentrations of each protein were quantified by using Bradford Reagent (PIERCE, Thermo Fisher Scientific Inc., Rockford, USA). Purified LdTOP1L was mixed with purified LdTOP1S at a molar ratio of 1:1 to a total protein concentration of 0.5 mg/ml in reconstitution buffer [50 mM potassium phosphate, pH 7.5, 0.5 mM DTT, 1 mM EDTA, 0.1 mM PMSF and 10% (v/v) glycerol]. The mixture was dialyzed overnight at 4 °C and dialyzed fractions were used for plasmid relaxation activity.
# [2] = LdTop1 relaxation, 12.5 uM, read-out: % inhibition, mean data
# [3] = LdTop1 relaxation, 25 uM, read-out: % inhibition, mean data
# [4] = LdTop1 relaxation, 50 uM, read-out: % inhibition, mean data
# [5] = LdTop1 relaxation, 100 uM, read-out: % inhibition, mean data
# [6] = plasmid DNA relaxation, averages of three experiments, read-out: LDTop1 inhibition (EC50)
# [7] = read-out: % inhibition (CPT 100%), data 1, LdTop1 relaxation, 12.5 uM
# [8] = read-out: % inhibition (CPT 100%), data 1, LdTop1 relaxation, 25 uM
# [9] = read-out: % inhibition (CPT 100%), data 1, LdTop1 relaxation, 50 uM
# [10] = read-out: % inhibition (CPT 100%), data 1, LdTop1 relaxation, 100 uM
# [11] = read-out: % inhibition (CPT 100%), data 2, LdTop1 relaxation, 12.5 uM
# [12] = read-out: % inhibition (CPT 100%), data 2, LdTop1 relaxation, 25 uM
# [13] = read-out: % inhibition (CPT 100%), data 2, LdTop1 relaxation, 50 uM
# [14] = read-out: % inhibition (CPT 100%), data 2, LdTop1 relaxation, 100 uM
# [15] = supplement sheet Ld Top 1 data, concentrations in uM, read-out: EC50 (LdTop1, supplement sheet)
compound,measurement,setting,value
Cc1cc2c(c(=O)[nH]1)C(=O)O/C2=C\c1cccc(Br)c1 [Compound 9],EC50,Human Top1 (HTop1),> 100 µM
same,inhibition at 12.5 µM,[1]; [2],52.2%
same,inhibition at 25 µM,[1]; [3],68.2%
same,inhibition at 50 µM,[1]; [4],88.4%
same,inhibition at 100 µM,[1]; [5],93%
same,LdTop1 inhibitory activity,[1]; plasmid DNA relaxation,considerable activity
same,EC50,[1]; [6],7.51 ± 1.02 µM
same,inhibition at 12.5 µM,[1]; [7],52.9%
same,inhibition at 25 µM,[1]; [8],69.6%
same,inhibition at 50 µM,[1]; [9],89.7%
same,inhibition at 100 µM,[1]; [10],95.5%
same,inhibition at 12.5 µM,[1]; [11],51.4%
same,inhibition at 25 µM,[1]; [12],66.8%
same,inhibition at 50 µM,[1]; [13],87.2%
same,inhibition at 100 µM,[1]; [14],90.5%
same,EC50,[1]; [15],7.51 µM
Cc1cc2c(c(=O)[nH]1)C(=O)O/C2=C\c1ccc(Br)cc1 [Compound 10],EC50,Human Top1 (HTop1),> 100 µM
same,EC50,[1]; [6],> 100 µM
Cc1cc2c(c(=O)[nH]1)C(=O)O/C2=C\c1cccc(I)c1 [Compound 15],EC50,Human Top1 (HTop1),> 100 µM
same,inhibition at 12.5 µM,[1]; [2],42.1%
same,inhibition at 25 µM,[1]; [3],55.3%
same,"% inhibition (CPT 100%), data 2","[1]; LdTop1 relaxation, 50 uM",74.2517%
same,inhibition at 50 µM,[1]; [4],75.2%
same,inhibition at 100 µM,[1]; [5],91.7%
same,LdTop1 inhibitory activity,[1]; plasmid DNA relaxation,considerable activity
same,EC50,[1]; [6],17.4 ± 1.86 µM
same,inhibition at 12.5 µM,[1]; [7],41.1%
same,inhibition at 25 µM,[1]; [8],53.2%
same,inhibition at 50 µM,[1]; [9],76.2%
same,inhibition at 100 µM,[1]; [10],93%
same,inhibition at 12.5 µM,[1]; [11],43.1%
same,inhibition at 25 µM,[1]; [12],57.3%
same,inhibition at 50 µM,[1]; [13],74.3%
same,inhibition at 100 µM,[1]; [14],90.5%
same,EC50,[1]; [15],17.4 µM
Cc1cc2c(c(=O)[nH]1)C(=O)O/C2=C\c1ccc2c(c1)OCO2 [Compound 6],EC50,Human Top1 (HTop1),> 100 µM
same,LdTop1 inhibitory activity,[1]; plasmid DNA relaxation,complete loss of activity
same,EC50,[1]; [6],> 100 µM
Cc1cc2c(c(=O)[nH]1)C(=O)O/C2=C\c1cccc(Cl)c1 [Compound 14],EC50,Human Top1 (HTop1),> 100 µM
same,"% inhibition (CPT 100%), data 1","[1]; LdTop1 relaxation, 12.5 uM",32.026%
same,inhibition at 12.5 µM,[1]; [2],30.6%
same,"% inhibition (CPT 100%), data 1","[1]; LdTop1 relaxation, 25 uM",46.8807%
same,inhibition at 25 µM,[1]; [3],48.1%
same,"% inhibition, mean data","[1]; LdTop1 relaxation, 50 uM",61.4846%
same,inhibition at 50 µM,[1]; [4],61.5%
same,"% inhibition (CPT 100%), data 1","[1]; LdTop1 relaxation, 100 uM",88.2434%
same,"% inhibition (CPT 100%), data 2","[1]; LdTop1 relaxation, 100 uM",86.2086%
same,"% inhibition, mean data","[1]; LdTop1 relaxation, 100 uM",87.226%
same,inhibition at 100 µM,[1]; [5],87.2%
same,LdTop1 inhibitory activity,[1]; plasmid DNA relaxation,considerable activity
same,inhibition at 12.5 µM,[1]; [7],32%
same,inhibition at 25 µM,[1]; [8],46.9%
same,inhibition at 50 µM,[1]; [9],58.6%
same,inhibition at 100 µM,[1]; [10],88.2%
same,inhibition at 12.5 µM,[1]; [11],29.1%
same,inhibition at 25 µM,[1]; [12],49.4%
same,inhibition at 50 µM,[1]; [13],64.3%
same,inhibition at 100 µM,[1]; [14],86.2%
same,EC50,[1]; [15],35.6 µM
Cc1cc2c(c(=O)[nH]1)C(=O)O/C2=C\c1ccccc1Cl [Compound 21],EC50,Human Top1 (HTop1),> 100 µM
same,EC50,[1]; [6],> 100 µM
Cc1cc2c(c(=O)[nH]1)C(=O)O/C2=C\c1ccc(I)cc1 [Compound 18],EC50,Human Top1 (HTop1),> 100 µM
same,EC50,[1]; [6],> 100 µM
COc1cccc(/C=C2\OC(=O)c3c2cc(C)[nH]c3=O)c1OC [Compound 12],EC50,Human Top1 (HTop1),> 100 µM
same,LdTop1 inhibitory activity,[1]; plasmid DNA relaxation,inactive
same,EC50,[1]; [6],> 100 µM
Cc1cc2c(c(=O)[nH]1)C(=O)O/C2=C\c1ccccc1Br [Compound 20],EC50,Human Top1 (HTop1),> 100 µM
same,EC50,[1]; [6],> 100 µM
Cc1cc2c(c(=O)[nH]1)C(=O)O/C2=C\c1ccccc1 [Compound 13],EC50,Human Top1 (HTop1),> 100 µM
same,EC50,[1]; [6],> 100 µM
Cc1cc2c(c(=O)[nH]1)C(=O)O/C2=C\c1ccc(Cl)cc1 [Compound 17],EC50,Human Top1 (HTop1),> 100 µM
same,EC50,[1]; [6],> 100 µM
CC/C=C1\OC(=O)c2c1cc(C)[nH]c2=O [Compound 16],EC50,Human Top1 (HTop1),> 100 µM
same,LdTop1 inhibitory activity,[1]; plasmid DNA relaxation,no inhibitory activity at all
same,EC50,[1]; [6],> 100 µM
COc1ccc(/C=C2\OC(=O)c3c2cc(C)[nH]c3=O)cc1 [Compound 19],EC50,Human Top1 (HTop1),> 100 µM
same,EC50,[1]; [6],> 100 µM
Cc1cc2c(c(=O)[nH]1)C(=O)O/C2=C\c1cccc2ccccc12 [Compound 11],EC50,Human Top1 (HTop1),> 100 µM
same,LdTop1 inhibitory activity,[1]; plasmid DNA relaxation,no inhibitory activity at all
same,EC50,[1]; [6],> 100 µM
